# Assay results taken from US7563793B2, “Pyrrolo[1,2-a]quinoxalin-5-(4H)-yl)sulfonyls and carbonyls and their use as estrogenic agents” (Wyeth, priority 2004, dated 2009).
# Assays:
# creatine kinase = experiment: Creatine kinase assay in Ad5-wt-ER infected HAECT-1 cells; format: cell-based, human; details: Homo sapiens; for EC50: HAECT1, CK stimulation, N/O = activity not observed at concentrations tested, read-out: CK IC50; for Emax: HAECT1, relative to maximal stimulation observed with E2, read-out: CK Efficacy
# Procedure, shortened: (§1)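 Ad5-wt-hERα-infected HAECT-1 cells, with uninfected cells as controls; after infection, cells were washed, incubated overnight in EBM-BSA, then held at 34 °C for 1 h. Luciferase was read by luminometry on cell lysates. IC50/EC50 came from four-parameter logistic fits of mean IL-6, luciferase or CK values versus log10 compound concentration.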
# ER/Nf-kB = experiment: ER/NF-κB luciferase reporter assay in Ad5-wt-ER infected HAECT-1 cells (IL-1β induced); format: cell-based, human; details: for IC50: Homo sapiens, HAECT1; for ER/Nf-kB Efficacy: relative to maximal inhibition observed with E2
# Experimental: After four hours, cells were washed with EBM-BSA and incubated overnight in the same medium. […] After two hours, cells were washed and incubated at 34° C. for 1 hour. […] Control (no ER infection) cells were processed as above without Ad5-wt-hERα virus infection. […] Cells were subsequently washed with 300 μl of Dulbecco's phosphate buffered saline and lysed in 50 μl of Cell Culture Lysis Reagent (Promega). Luciferase was determined on a Wallac Victor^2 Luminometer (Gaithersburg, Md.) using 10 μl of lysate and mixing with 100 lμof Promega Luciferase Assay reagent. […] For IC50 and EC50 calculations, mean IL-6, luciferase or CK values versus log10 of the compound concentration were fitted to a four parameter logistic equation. The IC50/EC50 value, ‘Hill slope’, upper and lower limits of the curve were iteratively estimated.
# IL-6 = IL-6 assay (ELISA) in Ad5-wt-ER infected HAECT-1 cells (IL-1β induced); format: cell-based, human; details: Homo sapiens; for IC50: HAECT1; for Emax: HAECT1, relative to maximal inhibition observed with E2, read-out: IL-6 Efficacy
# Procedure, shortened: as §1
Compound,EC50 (creatine kinase) [nM],melting point [°C],IC50 (ER/Nf-kB) [nM],IC50 (IL-6) [nM],Emax (creatine kinase) [%],ER/Nf-kB Efficacy (ER/Nf-kB) [%],Emax (IL-6) [%]
"CCC1c2ccc(C#N)n2-c2cc(F)c(F)cc2N1S(=O)(=O)c1ccc(O)c(C)c1 (stereo not drawn) [Example 12, 4-ethyl-7,8-difluoro-5-[(4-hydroxy-3-methylphenyl)sulfonyl]-4,5-dihydropyrrolo[1,2-a]quinoxaline-1-carbonitrile]",,201 to 203,1820,,,91,
"CCC1c2ccc(C#N)n2-c2ccc(F)cc2N1S(=O)(=O)c1ccc(O)c(C)c1 (stereo not drawn) [Example 33, 4-ethyl-7-fluoro-5-[(4-hydroxy-3-methylphenyl)sulfonyl]-4,5-dihydropyrrolo[1,2-a]quinoxaline-1-carbonitrile]",,192 to 194,1320,,,208,
"CCC1c2ccc(C#N)n2-c2ccc(C(F)(F)F)cc2N1S(=O)(=O)c1ccc(O)c(C)c1 (stereo not drawn) [Example 59, 4-ethyl-5-[(4-hydroxy-3-methylphenyl)sulfonyl]-7-(trifluoromethyl)-4,5-dihydropyrrolo[1,2-a]quinoxaline-1-carbonitrile]",3000,194 to 196,9700,,-13,75,
"CC[C@H]1c2ccc(C#N)n2-c2cc(F)c(F)cc2N1S(=O)(=O)c1ccc(OS(N)(=O)=O)c(C)c1 [Example 103, 4-{[(4S)-1-cyano-4-ethyl-7,8-difluoropyrrolo[1,2-a]quinoxalin-5(4H)-yl]sulfonyl}-2-methylphenyl sulfamate]",34,204 to 207,,101,-18,,93
"CCC1c2cccn2-c2ccc(F)cc2N1C(=O)c1ccc(O)cc1 (stereo not drawn) [Example 118, 4-[(4-ethyl-7-fluoropyrrolo[1,2-a]quinoxalin-5(4H)-yl)carbonyl]phenol]",20,165 to 167,,3,32,,95

# Continued by falling IC50 (ER/Nf-kB), values first:
EC50 (creatine kinase) [nM],melting point [°C],IC50 (ER/Nf-kB) [nM],IC50 (IL-6) [nM],Compound,Emax (creatine kinase) [%],ER/Nf-kB Efficacy (ER/Nf-kB) [%],Emax (IL-6) [%]
107,169 to 171,962,,"CCC1c2ccc(C#N)n2-c2ccc(F)cc2N1S(=O)(=O)c1ccc(O)cc1 (stereo not drawn) [Example 35, 4-ethyl-7-fluoro-5-[(4-hydroxyphenyl)sulfonyl]-4,5-dihydropyrrolo[1,2-a]quinoxaline-1-carbonitrile]",19,72,
830,208 to 210,332,,"CC[C@H]1c2ccc(C#N)n2-c2cc(F)c(F)cc2N1S(=O)(=O)c1ccc(O)c(C)c1 [Example 11B, (S)-4-ethyl-7,8-difluoro-5-[(4-hydroxy-3-methylphenyl)sulfonyl]-4,5-dihydropyrrolo[1,2-a]quinoxaline-1-carbonitrile]",96,96,
,194 to 196,157,,"CCC1c2cccn2-c2cc(O)c(F)cc2N1S(=O)(=O)c1ccc(O)c(C)c1 (stereo not drawn) [Example 74, 4-ethyl-7-fluoro-5-[(4-hydroxy-3-methylphenyl)sulfonyl]-4,5-dihydropyrrolo[1,2-a]quinoxalin-8-ol]",,75,
212,187 to 189,11,,"CC[C@H]1c2cccn2-c2ccc(Br)cc2N1S(=O)(=O)c1ccc(O)cc1 [Example 77, 4-{[(4S)-7-bromo-4-ethylpyrrolo[1,2-a]quinoxalin-5(4H)-yl]sulfonyl}phenol]",39,186,
